These results are taken from the CATMoS acute toxicity set (Mansouri et al. 2021).

Structures are written as SMILES.

A short description of the data set: GHS categories as the set defines them, by LD50: 1 up to 5, 2 up to 50, 3 up to 300, 4 up to 2000, 5 above 2000 mg/kg. As to conditions: rat; in vivo; po.
As for `Cc1ccc(Cl)cc1N=Nc1c(O)c(C(=O)Nc2cc(C)c(NC(=O)c3cc4ccccc4c(N=Nc4cc(Cl)ccc4C)c3O)cc2C)cc2ccccc12`, the GHS category is reported as 5.

On to `CC(=O)Nc1cc2cccnc2c(N2CCN(CCO)CC2)n1`, for which the GHS category is given as 5.

Regarding `CCCCCCCCCCCCCCCOS(=O)(=O)O`, the GHS category was found to be 5.

`COC(=O)c1ccccc1CS(=O)(=O)NC(=O)Nc1nc(OC)cc(OC)n1`: the GHS category stood at 5.

The compound `C#CCC(O[Si](CC)(CC)CC)[Si](CC)(CC)CC` (stereo unspecified) displayed a GHS category of 5.

On to `COC(=O)c1cc(F)ccc1N`, for which the GHS category stood at 5.

The compound `CCCCNC1CC(C)(C)NC(C)(C)C1` returned a GHS category of 4.

For the compound `O=C1NC(=O)c2ccccc21`, the GHS category is 5.

With `CCOP(=O)(OCC)c1ccccc1`, the GHS category was determined as 4.

As for `CNC(=O)Oc1cc(C)cc(C)c1C`, the GHS category is on record as 3.

For the compound `CCCCCCCCCCCCCCCCCC#N`, the GHS category came to 5.

`O=C1COc2cc(C(=O)c3ccc(Cl)cc3)ccc2N1` had a GHS category of 5.

`CN1C(CSCC(F)(F)F)Nc2cc(Cl)c(S(N)(=O)=O)cc2S1(=O)=O` (stereo unspecified) showed a GHS category of 2.

For `CCC1=NN(C(=O)NC(=O)c2ccc(Cl)cc2)C(C)(CC)C1` (stereo unspecified), the GHS category amounted to 5.

As to `COC(=O)c1nc(Cl)c(Cl)nc1N`, the GHS category was 5.

As to `O=C(O)CCCCC(=O)O`, the GHS category was 5.

As to `CCN(CC)CCc1nc(-c2ccccc2)no1`, the GHS category worked out at 5.

With `O=C(O)C1(O)c2ccccc2-c2ccc(Cl)cc21` (stereo unspecified), the GHS category turned out to be 5.

As to `C=CCSc1nc(N)c2c(C)coc2n1`, the GHS category came to 5.

`O=P(O)(O)CN(CP(=O)(O)O)CP(=O)(O)O` gave a GHS category of 5.

In the case of `C=C(C)C(=O)OCCCCCCCCCCCC`, the GHS category worked out at 5.

`CCCCCCCCCCCCCc1cccc(O)c1C(=O)O` came in with a GHS category of 4.

Compound `O=S(=O)(CCO)CS(=O)(=O)CCO` had a GHS category of 5.

`CC/C=C/C=C\CCCCCCCCOC(C)=O` gave a GHS category of 4.

`CCCCCCCCCCCCCCCCCCCCCC(=O)Nc1ccn([C@@H]2O[C@H](CO)[C@@H](O)[C@@H]2O)c(=O)n1` registered a GHS category of 4.

In turn, `CC#CCn1c(Br)nc2c1c(=O)[nH]c(=O)n2C` gave a GHS category of 4.

For `CCC(=O)O[C@]1(C(=O)SCF)[C@H](C)C[C@H]2C3C[C@H](F)C4=CC(=O)C=C[C@]4(C)[C@@]3(F)[C@@H](O)C[C@@]21C` (stereo partly specified), the GHS category amounted to 5.

The compound `COc1ccc2c(c1)CCN(c1ccccc1)C2c1ccccc1[N+](=O)[O-]` (stereo unspecified) displayed a GHS category of 4.

`CC(=O)OC1CCC2(C)C(CCC3(C)C2C(=O)C=C2C4CC(C)(C(=O)O)CCC4(C)CCC23C)C1(C)C` (stereo unspecified) gave a GHS category of 5.

Regarding `COc1ccccc1NC(=O)C(N=Nc1ccc(Cl)cc1[N+](=O)[O-])C(C)=O` (stereo unspecified), the GHS category was found to be 5.

`C=CC/C=C/C/C=C/C/C=C/C` returned a GHS category of 5.

Consider `CC(C)C[Si](Cl)(Cl)Cl`, for which the GHS category came to 3.

In turn, `O=S(=O)(O)c1cc(Nc2nc(Cl)nc(N(CCO)CCO)n2)ccc1C=Cc1ccc(Nc2nc(Cl)nc(N(CCO)CCO)n2)cc1S(=O)(=O)O` displayed a GHS category of 5.

The compound `CC(CCc1ccccc1)NCC(O)c1ccc(O)c(C(N)=O)c1` (stereo unspecified) gave a GHS category of 5.

`C[Si](C)(C)O[Si](C)(C)O[Si](C)(C)C` displayed a GHS category of 5.

Consider `CC1CC(OC(=O)C(C)(C)Oc2ccccc2Cl)CC(C)(C)C1` (stereo unspecified), for which the GHS category came to 5.

In turn, `COc1ccccc1-c1nc(C)c(C(N)=O)s1` had a GHS category of 5.

Regarding `OC1(c2ccc(Cl)c(Cl)c2)c2ccccc2C2=NCCCN21` (stereo unspecified), the GHS category was 4.

Regarding `CCCCCCCCCCC[C@@H]1C[C@H](O)[C@H](CCCCCC)C(=O)O1`, the GHS category was determined as 5.

For the compound `CCCC1OC(Cn2cncn2)(c2cc3ccccc3o2)OCC1CC` (stereo unspecified), the GHS category was 4.

`COCc1cnc(C2=NC(C)(C(C)C)C(=O)N2)c(C(=O)O)c1` (stereo unspecified) gave a GHS category of 5.

With `CN[C@@H]1[C@@H](O)[C@@H](O[C@@H]2[C@@H](O)[C@H](O[C@H]3O[C@H](CN)[C@@H](O)[C@H](O)[C@H]3O)[C@@H](N)C[C@H]2NC(=O)C(O)CN)OC[C@]1(C)O` (stereo partly specified), the GHS category came to 5.

As for `Cc1nsc(NC(=O)c2ccccc2)c1C(=O)Nc1ccc(Cl)cc1`, the GHS category was found to be 5.

Consider `Brc1ccc(CNC2=NCCS2)cc1`, for which the GHS category is 3.

For the compound `CN(C)CCSc1nc2ccccc2cc1-c1ccccc1`, the GHS category amounted to 4.

Turning to `CCCCCC(=O)OCCC(C)C`, the GHS category is on record as 5.

Regarding `CCO[Si](CC(C)CC(C)(C)C)(OCC)OCC` (stereo unspecified), the GHS category came out at 5.

With `Nc1c(I)c(C(=O)O)c(I)c(C(=O)O)c1I`, the GHS category was 5.

Take `CC(C)C(=O)OOC(C)(C)C`: the GHS category was 5.

In turn, `NCC[C@H](O)C(=O)N[C@@H]1C[C@H](N)[C@@H](O[C@H]2O[C@H](CN)CC[C@H]2N)[C@H](O)[C@H]1O[C@H]1O[C@H](CO)[C@@H](O)[C@H](N)[C@H]1O` yielded a GHS category of 5.

`O=C(Nc1ccccc1-c1ccc(Cl)cc1)c1cccnc1Cl` had a GHS category of 5.

With `CCCN(CCC)c1c([N+](=O)[O-])cc(C(C)C)cc1[N+](=O)[O-]`, the GHS category worked out at 5.

On to `CN(C(=O)Cl)c1nnc(C(C)(C)C)s1`, for which the GHS category came to 4.

`C=CC(C)(O)CCC=C(C)CC(C)C` (stereo unspecified) yielded a GHS category of 5.

The compound `CCCCCCCCCCCCCCC(C)c1cc(C)cc(C)c1O` (stereo unspecified) yielded a GHS category of 5.

The compound `CCCCCCOC(=O)CCCCC(=O)OCCCCCC` had a GHS category of 5.

Consider `O=C(O)c1ccc(OCCn2ccnc2)cc1`, for which the GHS category is listed as 4.

In turn, `NC[C@H]1O[C@H](O[C@H]2[C@H](O[C@@H]3O[C@H](CO)[C@@H](O)[C@H]3O)C(O)[C@H](N)C[C@@H]2N)[C@H](N)[C@@H](O)[C@@H]1O` (stereo partly specified) had a GHS category of 5.

Compound `CCOC(=O)[C@H](CCc1ccccc1)N[C@H]1CCCN2CCC[C@@H](C(=O)O)N2C1=O` yielded a GHS category of 5.

Consider `O=C(CCS)OCC(COC(=O)CCS)(COC(=O)CCS)COC(=O)CCS`, for which the GHS category turned out to be 4.

With `CCC1OC(=O)C(C)C(OC2CC(C)(OC)C(O)C(C)O2)C(C)C(OC2OC(C)CC(N(C)C)C2O)C(C)(O)CC(C)C(=O)C(C)C(O)C1(C)O` (stereo unspecified), the GHS category was determined as 5.

Consider `Cl[Si](Cl)(C1CCCC1)C1CCCC1`, for which the GHS category was found to be 5.

Turning to `CC(C)(C=O)CN1CCOCC1`, the GHS category came to 5.

Take `COc1cc2c(cc1OC)C(c1cccc(Cl)c1)=NN=C(C)C2`: the GHS category was 5.

`CCOC(=O)C(=O)Nc1cc(SC)nc(C)n1` had a GHS category of 4.

For `COc1cc(C(=O)OCc2cccc(COC(=O)c3cc(OC)c(OC)c(OC)c3)n2)cc(OC)c1OC`, the GHS category was determined as 5.

For `CCCCCCCCCCCCCCCCCC(=O)OCC`, the GHS category is given as 5.

Regarding `CC(C)=CCC[C@@](C)(O)[C@H]1CC=C(C)CC1`, the GHS category amounted to 5.

In turn, `CC12CCCC(O)(C1)C1CC(C)(C)C1CC2` (stereo unspecified) gave a GHS category of 5.

In turn, `COC(F)(F)C(C(F)(F)F)C(F)(F)F` returned a GHS category of 3.

`O=C(O)[C@@H]1C[C@@H](C2CCCCC2)CN1` gave a GHS category of 5.

`C=COCCCN`: the GHS category came to 4.

With `CCN(CC)CCOC(=O)c1ccc(-n2c(C)nc3ccccc3c2=O)cc1`, the GHS category worked out at 5.

On to `Cc1ccnc(N)c1`, for which the GHS category was determined as 4.

`O=C1c2ccccc2C(c2ccc(O)cc2)(c2ccc(O)cc2)N1c1ccccc1` registered a GHS category of 5.

On to `Nc1nc(=O)c(Br)c(-c2ccccc2)[nH]1`, for which the GHS category stood at 5.

Turning to `CC(C)C[C@H](N)C(=O)O`, the GHS category came out at 5.

`CCCCOC(=O)Cc1ccccc1` registered a GHS category of 5.

`CC12C=CC(=O)C=C1CCC1C2CCC2(C)C(O)CCC12` (stereo unspecified) displayed a GHS category of 5.

With `CC1CC(OC(=O)COc2ccc(I)cc2)CC(C)(C)C1` (stereo unspecified), the GHS category is listed as 5.

For `COC(=O)c1ccc(C(=O)O)cc1[N+](=O)[O-]`, the GHS category is reported as 5.

`COC(=O)CCc1cc(-n2nc3ccccc3n2)c(O)c(C(C)(C)C)c1` registered a GHS category of 5.

As for `Clc1ccc(Cl)nn1`, the GHS category came out at 3.

With `CC(=O)Nc1ccc(OC(=O)c2cccs2)cc1`, the GHS category is reported as 5.

On to `CCCN(CCC)c1c([N+](=O)[O-])cc(S(N)(=O)=O)cc1[N+](=O)[O-]`, for which the GHS category is listed as 5.

Turning to `Nc1c(/N=N/c2ccc(S(=O)(=O)CCOS(=O)(=O)O)cc2)c(S(=O)(=O)O)cc2cc(S(=O)(=O)O)c(/N=N/c3ccc(S(=O)(=O)CCOS(=O)(=O)O)cc3)c(O)c12`, the GHS category amounted to 5.

`CC(C)(C)[C@H]1CC[C@H](O)CC1` yielded a GHS category of 5.

As to `FC(F)CNCc1ccc(Cl)nc1`, the GHS category is recorded as 5.

For the compound `Cc1ncc(COP(=O)(O)O)c(CN)c1O`, the GHS category was determined as 5.

`CCCCC(=O)O[C@]1(C(=O)CO)[C@H](C)C[C@H]2[C@@H]3CCC4=CC(=O)C=C[C@]4(C)[C@@]3(F)[C@@H](O)C[C@@]21C` gave a GHS category of 5.

`Cc1ccc(C(=O)COc2c(C(=O)c3ccc(Cl)c(C)c3Cl)c(C)nn2C)cc1` had a GHS category of 5.

`CN(C)CC(=O)O` came in with a GHS category of 4.

For `O=C(O)CN1C(=O)c2cccc3cccc(c23)C1=O`, the GHS category is recorded as 5.

Regarding `CC(C)=CCC/C(C)=C/COC=O`, the GHS category is 5.

With `COc1ccccc1N1CCN(/C(=N\CCCO)Nc2ccccc2)CC1`, the GHS category is 4.

Regarding `O=C(O)c1cc(Nc2ccccc2)c(C(=O)O)cc1Nc1ccccc1`, the GHS category is on record as 5.

For the compound `CON=CC1=CCCN(C(=O)Oc2ccc(C(C)C)cc2)C1`, the GHS category amounted to 4.

Compound `COc1ccccc1C=NNC(N)=S` yielded a GHS category of 5.

For the compound `CC1=C(NC(=O)O)/C(=N/C(=O)CN)C=CC1(NC(=O)O)c1cccc(C2=CC=C/C(=N\C(=O)CN)C2C)c1` (stereo unspecified), the GHS category is on record as 5.

For the compound `CC(CCO)CC(C)(C)C` (stereo unspecified), the GHS category amounted to 5.

Compound `CC(=CCc1c(O)c(Cl)c(C)c(C=O)c1O)CCC=C(C)[C@@H]1CC(=O)C(C)(C)O1` showed a GHS category of 5.
